{"source": "ChEMBL document CHEMBL1201862", "about": "“PubChem BioAssay data set” (2004)", "key": {"[1]": {"biological_target": "Tyrosyl-DNA phosphodiesterase 2 (Homo sapiens, UniProt O95551)", "assay": "potency against TDP2 phosphodiesterase activity – biochemical, epi absorbance, IC50, dose response (AID 743297)"}, "[2]": {"biological_target": "Photoreceptor-specific nuclear receptor (Homo sapiens, UniProt Q9Y5X4)", "type": "functional"}, "[3]": {"biological_target": "Major prion protein (Homo sapiens, UniProt P04156)", "type": "functional, cell-based"}, "[4]": {"biological_target": "CAAX prenyl protease 2 (Homo sapiens, UniProt Q9Y256)", "assay": "inhibition of Ras-converting CAAX protease Rce1 – biochemical, yeast membranes, quenched-peptide fluorescence, cherry-pick, dose response (AID 588849)"}, "[5]": {"biological_target": "T1, CAAX prenyl protease 2 (Saccharomyces cerevisiae S288c, UniProt Q03530)", "T1 sequence (Q03530 whole entry)": "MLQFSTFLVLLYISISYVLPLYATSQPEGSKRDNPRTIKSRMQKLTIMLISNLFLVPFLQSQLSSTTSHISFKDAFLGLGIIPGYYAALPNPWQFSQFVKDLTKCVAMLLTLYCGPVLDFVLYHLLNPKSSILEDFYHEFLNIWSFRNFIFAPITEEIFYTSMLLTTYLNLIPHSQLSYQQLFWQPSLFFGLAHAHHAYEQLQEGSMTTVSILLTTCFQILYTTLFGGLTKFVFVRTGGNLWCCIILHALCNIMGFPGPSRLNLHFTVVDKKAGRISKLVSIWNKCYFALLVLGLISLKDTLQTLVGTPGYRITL", "type": "biochemical"}, "[6]": {"assay": "cells"}, "[7]": {"biological_target": "Peroxisome proliferator-activated receptor gamma/Nuclear receptor corepressor 2 (Homo sapiens, UniProt P37231+Q9Y618)", "type": "functional"}, "[8]": {"biological_target": "T2, Small ubiquitin-related modifier 1 (Homo sapiens, UniProt P63165)", "assay": "SUMO1 protein-protein binding blockers, potency – biochemical, FRET, dose response (AID 624383)", "type": "functional", "conditions": "read-out: IC50_Mean"}, "[9]": {"biological_target": "Dual specificity tyrosine-phosphorylation-regulated kinase 1A (Rattus norvegicus, UniProt Q63470)", "type": "biochemical, Homo sapiens"}, "[10]": {"biological_target": "T2, Small ubiquitin-related modifier 1", "assay": "SUMO1 protein interaction blockers, potency – biochemical, fluorescence polarization, uHTS hits, dose response (AID 624382)", "type": "functional", "conditions": "read-out: IC50_Mean"}, "[11]": {"biological_target": "Luciferin 4-monooxygenase (Photinus pyralis, UniProt P08659)", "assay": "inhibition of purified Photinus pyralis luciferase – biochemical, luminescence, dose response (AID 1891)"}, "[12]": {"biological_target": "Disintegrin and metalloproteinase domain-containing protein 17 (Homo sapiens, UniProt P78536)", "assay": "exosite inhibitors of ADAM17, dose response, biochemical (AID 743260)"}, "[13]": {"assay": "Luminescence Cell-Based Dose Confirmation HTS to Identify Inhibitors of Platelet Dense Granule Release. [Related pubchem assays: 1663 (Primary HTS), 1678 (Summary of Project)]", "type": "functional"}, "[14]": {"assay": "inhibition of ADAM10 peptide cleavage – biochemical, FRET peptide substrate, recombinant human ADAM10, selectivity assay for ADAM17 exosite inhibitor project, dose response (AID 743259)"}, "[15]": {"biological_target": "Oxysterols receptor LXR-beta (Homo sapiens, UniProt P55055)", "type": "functional, cell-based"}, "[16]": {"biological_target": "Heat shock protein HSP 90-alpha (Homo sapiens, UniProt P07900)", "assay": "Luminescence-based dose response biochemical high throughput screening assay for inhibitors of the Heat Shock Protein 90 (HSP90). [Related pubchem assays: 1831 (Summary AID.), 1846 (Confirmation screen.), 1789 (Primary screen.)]"}, "[17]": {"assay": "Late stage assay provider results from the probe development effort to identify selective inhibitors of heat shock protein 90 (HSP90): Absorbance-based cell proliferation assay in SKBR3 cells.", "type": "functional", "conditions": "SK-BR-3"}, "[18]": {"assay": "viability loss in THP-1 monocytes – THP-1 cells, cytotoxicity control for Vif-APOBEC3G degradation inhibitor project, dose response (AID 1117359)", "type": "functional", "conditions": "THP-1"}, "[19]": {"assay": "Late stage assay provider results from the probe development effort to identify selective inhibitors of heat shock protein 90 (HSP90): Absorbance-based cell proliferation assay in MCF7 cells.", "type": "functional"}, "[20]": {"biological_target": "Potassium channel subfamily K member 9 (Homo sapiens, UniProt Q9NPC2)", "assay": "KCNK9 flux blockade, concentration-response – cell-based, FluxOR thallium flux, selectivity assay for TASK1 inhibitor project, SAR follow-up (AID 652211)", "type": "functional"}, "[21]": {"biological_target": "Voltage-gated inwardly rectifying potassium channel KCNH2 (Homo sapiens, UniProt Q12809)", "assay": "off-target hERG block by TASK1 inhibitor candidates – FluxOR thallium flux, concentration-response, CHO cells, selectivity assay for TASK1 inhibitor project, SAR follow-up (AID 652194)", "type": "functional, cell-based"}, "[22]": {"biological_target": "Potassium channel subfamily K member 3 (Homo sapiens, UniProt O14649)", "assay": "inhibition of human KCNK3 channel flux – CHO cells, FluxOR thallium flux, SAR follow-up (AID 652212)", "type": "functional"}, "[23]": {"assay": "cells", "conditions": "HEK293"}, "[24]": {"biological_target": "T3, Fibrinogen beta chain (Homo sapiens, UniProt P02675)", "assay": "Fluorescence polarization-based biochemical high throughput dose response assay to identify inhibitors that disrupt the binding of a cyclic peptide (Tn7) to the fibrin proteolytic product D-Dimer and fragment E complex [DD(E )]."}, "[25]": {"biological_target": "T3, Fibrinogen beta chain", "assay": "Fluorescence polarization-based biochemical high throughput dose response assay to identify inhibitors that disrupt the binding of a cyclic peptide (Tn6) to the fibrin proteolytic product D-Dimer and fragment E complex [DD(E )]."}, "[26]": {"biological_target": "Paired box protein Pax-8 (Homo sapiens, UniProt Q06710)", "assay": "PAX8 transcriptional activity inhibition in RMG-I – RMG-I cells, luciferase, cherry-pick, dose response (AID 687027);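 also: luciferase reporter driven by Pax8 target thyroperoxidase promoter measured by SteadyGlo luminescence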", "type": "functional, cell-based"}, "[27]": {"assay": "OVCAR-3 cell viability loss – plate reader, dry powder samples, PAX8 inhibitor project, dose response (AID 743044)", "type": "functional, cell-based"}, "[28]": {"assay": "inhibition of bursicon-driven LGR2 cAMP signaling – cell-based, HEK293, CRE-luciferase reporter, cherry pick, dose response (AID 743342)", "type": "functional"}, "[29]": {"assay": "A549 cell cytotoxicity, dose response, cytotoxicity control, plate reader, cherry-pick, antagonist series (AID 743412)", "type": "functional, cell-based"}, "[30]": {"assay": "viability loss in HEK293 cells – cell-based, plate reader, cherry-picked samples, cytotoxicity control, dose response (AID 743446)", "type": "functional"}, "[31]": {"assay": "blockade of melanocortin 4 receptor signaling – cell-based, plate reader, cherry pick, counter-screen for LGR2 antagonist project, dose response (AID 743444);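 also: transfected HEK 293 cells stimulated with alpha-MSH peptide; potency of inhibitors of the alpha-MSH evoked signal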", "type": "functional"}, "[32]": {"biological_target": "Fatty acid synthase (Homo sapiens, UniProt P49327)", "assay": "inhibition of human FAS-TE enzyme activity – biochemical, endpoint fluorescence intensity, powder samples, SAR follow-up (AID 652164)", "type": "functional"}}, "note": "Active and inactive are the calls of the source.", "data": [{"molecule": "N#CC(C#N)=C1NC(N)=C(C#N)C(c2ccccc2)=C1C#N", "values": [{"measurement": "IC50", "setting": "[1]", "result": "> 128 µM (inactive)"}, {"measurement": "IC50", "setting": "[2]", "result": "8.41 µM (active)"}, {"measurement": "IC50", "setting": "[3]", "result": "1.92 µM (active)"}, {"measurement": "AC50", "setting": "[4]", "result": "8.31 µM (active)"}, {"measurement": "AC50", "setting": "[5]", "result": "> 100 µM (inactive)"}, {"measurement": "IC50", "setting": "[6]", "result": "> 138 µM (inactive)"}, {"measurement": "IC50", "setting": "[7]", "result": "3.22 µM (active)"}, {"measurement": "IC50", "setting": "[8]", "result": "100 µM (inactive)"}, {"measurement": "AC50", "setting": "[9]", "result": "4.56 µM (active)"}, {"measurement": "IC50", "setting": "[10]", "result": "> 66.6 µM (inactive)"}]}, {"molecule": "Cc1ccccc1-c1noc(-c2ccc(O)cc2)n1", "values": [{"measurement": "EC50", "setting": "[11]", "result": "0.122 µM (active)"}, {"measurement": "IC50", "setting": "[12]", "result": "> 69.5 µM (inactive)"}, {"measurement": "EC50", "setting": "[13]", "result": "0.623 µM (active)"}, {"measurement": "IC50", "setting": "[14]", "result": "48.8 µM (inactive)"}]}, {"molecule": "Cc1ccc(-c2csc(NC(=O)/C=C/c3ccco3)c2C(=O)O)cc1", "values": [{"measurement": "EC50", "setting": "[15]", "result": "> 67.6 µM (inactive)"}]}, {"molecule": "CCOc1ccc(-c2nc(CN3CCCCC3CCn3cccn3)c(C)o2)cc1", "note": "(configuration not stated)", "values": [{"measurement": "IC50", "setting": "[16]", "result": "9.63 µM (active)"}, {"measurement": "IC50", "setting": "[17]", "result": "12.3 µM (inactive)"}, {"measurement": "CC50", "setting": "[18]", "result": "> 40 µM (active)"}, {"measurement": "IC50", "setting": "[19]", "result": "22.2 µM (inactive)"}]}, {"molecule": "COc1ccc(CC(=O)NCc2ccccc2-c2ccccc2C(=O)NCc2ccc(F)cc2F)cc1", "values": [{"measurement": "IC50", "setting": "[20]", "result": "3.2 µM (active)"}, {"measurement": "IC50", "setting": "[21]", "result": "36.7 µM (active)"}, {"measurement": "IC50", "setting": "[22]", "result": "0.115 µM (active)"}]}, {"molecule": "CNC(=O)c1ccc(NC(=O)c2cccc(C(F)(F)F)c2)cc1", "values": [{"measurement": "AC50", "setting": "[23]", "result": "49.8 µM (active)"}]}, {"molecule": "C#CCNc1ccc(C(=O)OCC)cc1", "values": [{"measurement": "IC50", "setting": "[24]", "result": "> 27.7 µM (inactive)"}, {"measurement": "IC50", "setting": "[25]", "result": "> 83.1 µM (inactive)"}]}, {"molecule": "Cc1cccc(S(=O)(=O)N2CC[C@@H]3[C@H](CO)N(C)c4ccc(-c5ccc(C#N)cc5)cc4[C@@H]32)c1", "values": [{"measurement": "AC50", "setting": "[26]", "result": "10.1 µM (active)"}, {"measurement": "AC50", "setting": "[27]", "result": "67.7 µM (active)"}]}, {"molecule": "COc1ccc(S(=O)(=O)N(C)C[C@@H]2OCCCC[C@H](C)Oc3ccc(NS(=O)(=O)c4ccc(F)cc4)cc3C(=O)N([C@@H](C)CO)C[C@@H]2C)cc1", "values": [{"measurement": "AC50", "setting": "[28]", "result": "58.8 µM (active)"}, {"measurement": "AC50", "setting": "[29]", "result": "26 µM (active)"}, {"measurement": "AC50", "setting": "[30]", "result": "> 52 µM (inactive)"}, {"measurement": "AC50", "setting": "[31]", "result": "42.7 µM (active)"}]}, {"molecule": "CCN(CC)S(=O)(=O)c1ccc(-c2csc(NC(=O)C3CCC3)n2)cc1", "values": [{"measurement": "IC50", "setting": "[32]", "result": "0.985 µM (active)"}]}]}
